According to PubChem BioAssay AID1259407 (Chemical Carcinogenesis Research Information System (CCRIS), 2018):
The source made the active and inactive calls. The rule behind the calls is not given here.

Tested on: CCRIS mutagenicity, Ames/micronucleus/aberration tests
Assay: CCRIS mutagenicity studies

Measured: mutagenic call

Clc1c(Cl)c(Cl)c2c(c1Cl)Oc1c(Cl)c(Cl)c(Cl)c(Cl)c1O2
inactive: Test System: AMES SALMONELLA TYPHIMURIUM, Strain/Indicator: TA97, Metabolic Activation: HAMSTER, LIVER, S-9, AROCLOR 1254 (10 OR 30%), Method: PREINCUBATION inactive; negative | Test System: AMES SALMONELLA TYPHIMURIUM, Strain/Indicator: TA97, Metabolic Activation: NONE, Method: PREINCUBATION inactive; negative | Test System: AMES SALMONELLA TYPHIMURIUM, Strain/Indicator: TA97, Metabolic Activation: RAT, LIVER, S-9, AROCLOR 1254 (10 OR 30%), Method: PREINCUBATION inactive; negative | Test System: AMES SALMONELLA TYPHIMURIUM, Strain/Indicator: TA98, Metabolic Activation: HAMSTER, LIVER, S-9, AROCLOR 1254 (10 OR 30%), Method: PREINCUBATION inactive; negative | Test System: AMES SALMONELLA TYPHIMURIUM, Strain/Indicator: TA98, Metabolic Activation: NONE, Method: PREINCUBATION inactive; negative | Test System: AMES SALMONELLA TYPHIMURIUM, Strain/Indicator: TA98, Metabolic Activation: RAT, LIVER, S-9, AROCLOR 1254 (10 OR 30%), Method: PREINCUBATION inactive; negative | Test System: AMES SALMONELLA TYPHIMURIUM, Strain/Indicator: TA100, Metabolic Activation: HAMSTER, LIVER, S-9, AROCLOR 1254 (10 OR 30%), Method: PREINCUBATION inactive; negative | Test System: AMES SALMONELLA TYPHIMURIUM, Strain/Indicator: TA100, Metabolic Activation: NONE, Method: PREINCUBATION inactive; negative | Test System: AMES SALMONELLA TYPHIMURIUM, Strain/Indicator: TA100, Metabolic Activation: RAT, LIVER, S-9, AROCLOR 1254 (10 OR 30%), Method: PREINCUBATION inactive; negative | Test System: AMES SALMONELLA TYPHIMURIUM, Strain/Indicator: TA1535, Metabolic Activation: HAMSTER, LIVER, S-9, AROCLOR 1254 (10 OR 30%), Method: PREINCUBATION inactive; negative | Test System: AMES SALMONELLA TYPHIMURIUM, Strain/Indicator: TA1535, Metabolic Activation: NONE, Method: PREINCUBATION inactive; negative | Test System: AMES SALMONELLA TYPHIMURIUM, Strain/Indicator: TA1535, Metabolic Activation: RAT, LIVER, S-9, AROCLOR 1254 (10 OR 30%), Method: PREINCUBATION inactive; negative

COc1cc(C(=O)OCCCN2CCCN(CCCOC(=O)c3cc(OC)c(OC)c(OC)c3)CC2)cc(OC)c1OC
inactive: Test System: AMES SALMONELLA TYPHIMURIUM, Strain/Indicator: TA98, Metabolic Activation: NONE inactive; negative | Test System: AMES SALMONELLA TYPHIMURIUM, Strain/Indicator: TA98, Metabolic Activation: RAT, LIVER, S-9, PHENOBARBITAL AND 5,6-BENZOFLAVONE inactive; negative | Test System: AMES SALMONELLA TYPHIMURIUM, Strain/Indicator: TA100, Metabolic Activation: NONE inactive; negative | Test System: AMES SALMONELLA TYPHIMURIUM, Strain/Indicator: TA100, Metabolic Activation: RAT, LIVER, S-9, PHENOBARBITAL AND 5,6-BENZOFLAVONE inactive; negative | Test System: AMES SALMONELLA TYPHIMURIUM, Strain/Indicator: TA1535, Metabolic Activation: NONE inactive; negative | Test System: AMES SALMONELLA TYPHIMURIUM, Strain/Indicator: TA1535, Metabolic Activation: RAT, LIVER, S-9, PHENOBARBITAL AND 5,6-BENZOFLAVONE inactive; negative | Test System: AMES SALMONELLA TYPHIMURIUM, Strain/Indicator: TA1537, Metabolic Activation: NONE inactive; negative | Test System: AMES SALMONELLA TYPHIMURIUM, Strain/Indicator: TA1537, Metabolic Activation: RAT, LIVER, S-9, PHENOBARBITAL AND 5,6-BENZOFLAVONE inactive; negative | Test System: E. COLI, Strain/Indicator: WP2 UVRA, Metabolic Activation: NONE inactive; negative | Test System: E. COLI, Strain/Indicator: WP2 UVRA, Metabolic Activation: RAT, LIVER, S-9, PHENOBARBITAL AND 5,6-BENZOFLAVONE inactive; negative
